Earlier results in US20110319467A1, “Absorption Enhancement of Statins and Omega Fatty Acids” (priority 2010, published 2011).

Settings: single emulsifier

HLB value: about 15
Substance: Polyoxyethylene sorbitan monooleate
